Source: patent US6486158B1, “[4,5]-fused-3,6-disubstituted-pyridazines with sulfur-containing substituents in position three for the treatment of neoplasia” (Cell Pathways, Inc., priority 1998, dated 2002)

Columns and labels:
[1] = target: T1, purified cyclooxygenase Type 1 (COX I) (Ovis aries, UniProt P05979); assay: Cyclooxygenase (COX I) inhibition, purified enzyme; format: biochemical; details: 100 μM compound, arachidonic acid 100 μM, 2.0 min at 37° C., COX I from ram seminal vesicles
T1 construct: The COX I was purified from ram seminal vesicles; from tissue; host or cells: ram seminal vesicles
T1 sequence (P05979 25-600): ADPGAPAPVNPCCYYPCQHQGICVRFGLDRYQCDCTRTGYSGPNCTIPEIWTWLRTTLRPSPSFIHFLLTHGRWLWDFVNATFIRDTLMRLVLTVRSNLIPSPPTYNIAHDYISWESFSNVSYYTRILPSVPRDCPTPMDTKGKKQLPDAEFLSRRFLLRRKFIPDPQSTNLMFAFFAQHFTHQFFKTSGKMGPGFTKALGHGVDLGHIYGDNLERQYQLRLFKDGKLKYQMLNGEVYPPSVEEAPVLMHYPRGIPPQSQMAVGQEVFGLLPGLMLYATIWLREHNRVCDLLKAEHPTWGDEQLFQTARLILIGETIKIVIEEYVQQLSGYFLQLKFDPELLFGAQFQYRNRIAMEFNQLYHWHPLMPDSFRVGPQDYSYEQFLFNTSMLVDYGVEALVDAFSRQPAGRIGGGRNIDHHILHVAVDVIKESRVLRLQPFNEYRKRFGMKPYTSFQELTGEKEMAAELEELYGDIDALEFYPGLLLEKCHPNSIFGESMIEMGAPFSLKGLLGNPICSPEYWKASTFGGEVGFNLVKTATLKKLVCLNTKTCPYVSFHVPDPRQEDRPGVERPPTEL
Experimental: COX I catalyzes the formation of prostaglandins and thromboxane by the oxidative metabolism of arachidonic acid. Compounds of this invention, as well as a positive control, (sulindac sulfide) were evaluated to determine whether they inhibited purified cyclooxygenase Type 1 (see Table 3 below).
The COX I was purified from ram seminal vesicles, as described by Boopathy, R. and Balasubramanian, J. 239:371-377, 1988. COX I activity was assayed as described by Evans, A. T. et al., “Actions of Cannabis Constituents on Enzymes Of Arachidonate Metabolism Anti-Inflammatory Potential,” Biochem. Pharmacol., 36:2035-2037, 1987. Purified COX I was incubated with arachidonic acid (100 μM) for 2.0 min at 37° C. in the presence or absence of test compounds. The assay was terminated by the addition of TCA, and COX I activity was determined by absorbance at […].

[2] = test system: human colon carcinoma cell line, SW-480; assay: Sulforhodamine B (SRB) tumor cell growth inhibition assay; format: cell-based; details: SW-480 cells, six days continuous exposure; for inhibition at 100 µM: Homo sapiens, SW480, 144 h
Experimental: The compounds of this invention were assayed for their growth inhibitory activity on the human colon carcinoma cell line, SW-480 obtained from ATCC (Rockville, Md.), to ascertain the degree of growth inhibition (Skehan et al., J. Natl. Cancer Instit. 82:1107-1112, 1990). Growth inhibition of this cell line is indicative of a benefit on precancerous lesions and neoplasms. The cell line and growth assay employed for such experiments are well characterized, and are used to evaluate the anti-neoplastic properties of compounds (Piazza, Cancer Research Vol. 57, pp. 2452-2459, 1997). The assay is used by the United States National Cancer Institute in its screening program for new anti-cancer drugs.
Drug stock solutions were made in 100% DMSO and were then diluted with RPMI media for cell culture testing. All drug solutions were prepared fresh on the day of testing. The cultured cells were obtained at passage #99 and grown in RPMI media supplemented with 5% fetal calf serum, and 2 mM glutamine, […] penicillin, 100 U/ml streptomycin, and 0.25 μg/ml amphotericin. The cultures were maintained in a humidified atmosphere of 95% air and 5% CO2 at 37° C. The cultures were passaged at preconfluent densities using a solution of 0.05% trypsin and 0.53 mM EDTA. Cells were plated at 1000 cells/well for 96 well flat-bottom microtiter plates.
Tumor cell growth inhibition was assessed using the Sulforhodamine B (SRB) protein binding assay. In this assay, tumor cells were plated in 96-well plates and treated with drug-containing media for six days (continuous exposure). For each plate, 6 wells were designated as no treatment controls, six wells as vehicle (0.1% DMSO) controls, and the remaining wells for drug dilutions with three wells per drug concentration. At the end of the exposure period, the cells were fixed and stained with sulforhodamine B, a protein binding dye. The dye was then solubilized, and the optical density of the resulting solution was determined on a 96-well plate reader. The mean optical density of the treated wells was then divided by the mean optical density in the control wells (6 wells of each) to determine the effect of the drug on the cells. Dye intensity is proportional to the number of cells or amount of protein per well. The resultant “percent inhibition” values, which then represents the degree of growth inhibition, for the indicated compounds from the Examples are tabulated in Table 1.
For one compound of this invention, an IC50 value was determined. An IC50 value is equivalent to the concentration of compound needed to inhibit tumor cell growth by 50%. The IC50 value was obtained graphically by plotting and connecting the mean growth inhibition values for each drug concentration tested. The experiment included three wells per drug concentration. Concentration was plotted on a log scale on the X-axis.

Row | SMILES | melting point [°C] | inhibition at 100 µM [1] [%] | inhibition at 100 µM [2] [%] | COX I % Inhibition (100 μM) [1] [%] | % Growth Inhibition at 100 μM [2] [%]
1 | c1ccc(CSc2nnc(-c3ccccc3)c3ccccc23)cc1 [Example 1, 1-Benzylthio-4-Phenylphthalazine] | 92 | 30 | 85 |  | 
2 | C=CCSc1nnc(-c2ccccc2)c2ccccc12 [Example 2, 1-(2-Propenylthio)-4-Phenylphthalazine] | 83 | 62 | 87 |  | 
3 | CSc1nnc(-c2ccccc2)c2ccccc12 [Example 3, 1-Methylthio-4-Phenylphthalazine] | 147 | 73 | < 50 |  | 
4 | Clc1cccc(CSc2nnc(-c3ccccc3)c3ccccc23)c1 [Example 4, 1-(3-Chlorobenzylthio)-4-Phenylphthalazine] | 85 | < 25 | 81 |  | 
5 | Fc1ccc(CSc2nnc(-c3ccccc3)c3ccccc23)cc1 [Example 11, 1-(4-Fluorobenzylthio)-4-Phenylphthalazine] | 104 | < 25 | 76 |  | 
6 | O=S(=O)(Cc1ccccc1)c1nnc(-c2ccccc2)c2ccccc12 [Example 18, 1-(Benzylsulfonyl)-4-Phenylphthalazine] |  | 81 |  |  | 
7 | COC(=O)Cc1nnc(Sc2ccccc2)c2ccccc12 [Example 19, Methyl-2-(4-Phenylthiophthalazinyl)acetate] |  |  |  | <25 | 61
8 | c1ccc(-c2nnc(SCc3ccc4ccccc4c3)c3ccccc23)cc1 [Example 20, 1-(2′-Naphthylmethylthio)-4-Phenylphthalazine] |  |  |  | <25 | <50
9 | CC(C)(C)OC(=O)CSc1nnc(-c2ccccc2)c2ccccc12 [Example 21, 1-(t-Butyl 2′Mercaptoacetate)-4-Phenylphthalazine] |  |  |  |  | 51
10 | Clc1cccc(CSc2nnc(-c3ccccn3)c3ccccc23)c1 [Example 22, 1-(3-Chlorobenzylthio)-4-(2-Pyridyl)-Phthalazine] |  | < 25 | 88 |  | 
11 | CCSc1nnc(-c2ccccc2)c2ccccc12 [Example 35, 1-Ethylthio-4-Phenylphthalazine] | 93 |  |  |  | 
12 | CSc1ccc(/C=C2/C(C)=C(CC(=O)O)c3cc(F)ccc32)cc1 [Sulindac sulfide, sulindac sulfide, reference compound] |  | 97 |  |  | 
